Legend:
Assay type in all cases: cell-based
[1] = Off-target cytotoxicity, MT-4 cells (Cell Titer Glo, 5 days); conditions: human, MT-4, five days incubation, intracellular ATP, read-out: CC50 (MT4)
Text: (§1) To assess potential off-target toxicity of certain compounds disclosed herein, the in vitro cytotoxicity of those compounds was profiled using a panel of 5 cell lines with various tissue origins. Compound cytotoxicity was examined in hepatoma-derived Huh-7 and HepG2 cells, prostate carcinoma-derived PC-3 cells, lymphoma derived MT-4 cells and a normal diploid lung cell line MRC-5. HepG2 and PC-3 cells used were adapted to grow in glucose-free galactose-containing medium. […] Cell viability was determined by measuring intracellular ATP levels following five days of continuous incubation with test compounds.
(§2) The MT-4 cell line (HTLV-1 transformed, human T lymphoblastoid cells) was obtained from the NIH AIDS Reagent program (Bathesda, Md.). The human hepatoblastoma cell line HepG2, human prostate carcinoma cell line PC-3, and normal fetal lung derived MRC-5 cells were obtained from the American Type Culture Collection (ATCC, Manassas, Va.).
(§3) Huh-7 cells were maintained in Dulbecco's Modified Eagle Medium (DMEM) supplemented with 10% fetal bovine serum (FBS, Hyclone, Logan, Utah), 1% non-essential amino acids (Gibco, Carlsbad, Calif.). PC-3 and HepG2 cells were adapted to grow in 0.2% galactose-containing, glucose-free Dulbecco's Modified Eagle Medium (DMEM) supplemented with 10% fetal bovine serum (FBS, Hyclone, Logan, Utah), 1% non-essential amino acids (Gibco, Carlsbad, Calif.), 1% Pyruvate (Cellgro), 1% Glutamax (Invitrogen, Carlsbad, Calif.). Galactose-adapted cells were maintained in the same culture medium. MRC-5 cells were maintained in Eagle's Minimum Essential Medium (EMEM) supplemented with 10% fetal bovine serum (FBS, Hyclone, Logan, Utah). […] All cell culture media were also supplemented with 100 Units/mL penicillin, 100 μg/mL streptomycin (Gibco).
For the MT-4 cytotoxicity assay, 0.4 μL of serially diluted compounds were added to 40 μl of cell maintenance media in 384-well black, solid bottom plate using a Biomek FX workstation (Beckman Coulter). Two thousand cells in 35 μL were added to each well using a Biotek uFlow Workstation (Biotek). […] Assay plates were incubated for five days at 37° C. in an incubator set at 5% CO2 and 90% humidity. After five days, 22 μL of Cell Titer Glo reagent (Promega) was added to the assay plates with a Biotek uFlow Workstation. Plates were subsequently placed on a Perkin Elmer Envision Plate Reader for five minutes before the luminescence signal was read.

[2] = system: Huh-7 cells; experiment: Off-target cytotoxicity, Huh-7 cells (Cell Titer Glo, 5 days); conditions: Huh-7, five days incubation, intracellular ATP; read-out: CC50 HEH7 CTG 50
Text: (§4) To assess potential off-target toxicity of certain compounds disclosed herein, the in vitro cytotoxicity of those compounds was profiled using a panel of 5 cell lines with various tissue origins. Compound cytotoxicity was examined in hepatoma-derived Huh-7 and HepG2 cells, prostate carcinoma-derived PC-3 cells, lymphoma derived MT-4 cells and a normal diploid lung cell line MRC-5. HepG2 and PC-3 cells used were adapted to grow in glucose-free galactose-containing medium. These cells have a relatively higher sensitivity to inhibitors of mitochondrial oxidative phosphorylation compared to the same cells maintained in standard glucose-containing culture medium (Marroquin et al., Toxicol. Sci. 2007; 97 (2):539-47). Cell viability was determined by measuring intracellular ATP levels following five days of continuous incubation with test compounds.
as §2, with “The human hepatoma Huh-7 cell line was obtained from ReBLikon GmbH (Mainz, Germany) {20879}. The MT-4” for “The MT-4”
(§5) Huh-7 cells were maintained in Dulbecco's Modified Eagle Medium (DMEM) supplemented with 10% fetal bovine serum (FBS, Hyclone, Logan, Utah), 1% non-essential amino acids (Gibco, Carlsbad, Calif.). PC-3 and HepG2 cells were adapted to grow in 0.2% galactose-containing, glucose-free Dulbecco's Modified Eagle Medium (DMEM) supplemented with 10% fetal bovine serum (FBS, Hyclone, Logan, Utah), 1% non-essential amino acids (Gibco, Carlsbad, Calif.), 1% Pyruvate (Cellgro), 1% Glutamax (Invitrogen, Carlsbad, Calif.). Galactose-adapted cells were maintained in the same culture medium. MRC-5 cells were maintained in Eagle's Minimum Essential Medium (EMEM) supplemented with 10% fetal bovine serum (FBS, Hyclone, Logan, Utah). MT-4 cells were maintained in RPMI-1640 supplemented with 10% fetal bovine serum (FBS, Hyclone, Logan, Utah). All cell culture media were also supplemented with 100 Units/mL penicillin, 100 μg/mL streptomycin (Gibco).
(§6) Using a Biotek uFlow Workstation (Biotek, Winooski, Vt.), 1500 HepG2, 1500 PC-3, 500 Huh7 or 1500 MRC-5 cells in 90 μL of culture media were dispensed into each well of black polystyrene tissue culture-treated 384-well plates. Plated cells were incubated for 24 hours in an incubator at 37° C., 5% CO2 and 90% humidity. Compound serial dilutions were performed in 100% DMSO in 384-well polypropylene (high recovery) plates on a Biomek FX Workstation (Beckman Coulter, Fullerton, Calif.). After 3-fold serial dilutions, 0.4 μL of compounds were transferred into 384-well plates containing cells using a Velocity 11 system equipped with a Bravo 384-well pipettor. The DMSO concentration in the final assay plates was 0.44% (v/v). Cells were incubated with compound(s) for five days at 37° C. Puromycin (44 μM final concentration) and DMSO (0.44%, v/v) were used as a positive and negative controls, respectively
(§7) At the end of the incubation period the cytotoxicity assay was performed as follows: Media from 384-well cell culture plates were aspirated with a Biotek EL405 plate-washer (Biotek) and cells were washed with 100 μL PBS once. Twenty microliters of Cell Titer Glo (Promega, Madison, Wis.) was added to each well of the plates with a Biotek uFlow liquid dispenser. Plates were incubated for 15 minutes at room temperature before luminescence was measured with a Perkin Elmer Envision Plate Reader (Perkin Elmer, Waltham, Mass.).
(§8) CC50 values were defined as the compound concentration that caused a 50% decrease in luminescence signal, and were calculated by non-linear regression using Pipeline Pilot software by applying a four parameter fit equation (Accelrys, San Diego, Calif.). Individual CC50 values are listed as μM concentrations.

[3] = Off-target cytotoxicity, galactose-adapted HepG2 cells (Cell Titer Glo, 5 days); conditions: human, galactose-adapted HepG2, five days incubation, intracellular ATP, read-out: CC50 GALHEPG2 CTG 50
Text: as §4
as §2, with “The human hepatoma Huh-7 cell line was obtained from ReBLikon GmbH (Mainz, Germany) {20879}. The MT-4” for “The MT-4”
as §5, §6, §7, §8

[4] = system: MRC-5 cells; experiment: Off-target cytotoxicity, MRC-5 cells (Cell Titer Glo, 5 days); conditions: MRC-5, five days incubation, intracellular ATP; read-out: CC50 MHCS CTG 50
Text: as §4
as §2, with “The human hepatoma Huh-7 cell line was obtained from ReBLikon GmbH (Mainz, Germany) {20879}. The MT-4” for “The MT-4”
as §5, §6, §7, §8

[5] = Off-target cytotoxicity, galactose-adapted PC-3 cells (Cell Titer Glo, 5 days); conditions: human, galactose-adapted PC-3, five days incubation, intracellular ATP, read-out: CC50 GALFC3 CTG 50
Text: as §1, §2, §3
as §6, with “C.” for “C. Puromycin (44 μM final concentration) and DMSO (0.44%, v/v) were used as a positive and negative controls, respectively”
as §7

[6] = target: T1, human TLR7 (Homo sapiens, UniProt Q9NYK1); experiment: HEK-Blue human TLR7 cell SEAP reporter assay (NF-κB activation); conditions: HEK-Blue human TLR7 cells, stimulation for 20 hours, Quanti Blue read at 640 nm
T1 construct: host or cells: HEK-Blue human TLR7 cells (HEK293-derived reporter line)
T1 sequence (Q9NYK1 27-1049): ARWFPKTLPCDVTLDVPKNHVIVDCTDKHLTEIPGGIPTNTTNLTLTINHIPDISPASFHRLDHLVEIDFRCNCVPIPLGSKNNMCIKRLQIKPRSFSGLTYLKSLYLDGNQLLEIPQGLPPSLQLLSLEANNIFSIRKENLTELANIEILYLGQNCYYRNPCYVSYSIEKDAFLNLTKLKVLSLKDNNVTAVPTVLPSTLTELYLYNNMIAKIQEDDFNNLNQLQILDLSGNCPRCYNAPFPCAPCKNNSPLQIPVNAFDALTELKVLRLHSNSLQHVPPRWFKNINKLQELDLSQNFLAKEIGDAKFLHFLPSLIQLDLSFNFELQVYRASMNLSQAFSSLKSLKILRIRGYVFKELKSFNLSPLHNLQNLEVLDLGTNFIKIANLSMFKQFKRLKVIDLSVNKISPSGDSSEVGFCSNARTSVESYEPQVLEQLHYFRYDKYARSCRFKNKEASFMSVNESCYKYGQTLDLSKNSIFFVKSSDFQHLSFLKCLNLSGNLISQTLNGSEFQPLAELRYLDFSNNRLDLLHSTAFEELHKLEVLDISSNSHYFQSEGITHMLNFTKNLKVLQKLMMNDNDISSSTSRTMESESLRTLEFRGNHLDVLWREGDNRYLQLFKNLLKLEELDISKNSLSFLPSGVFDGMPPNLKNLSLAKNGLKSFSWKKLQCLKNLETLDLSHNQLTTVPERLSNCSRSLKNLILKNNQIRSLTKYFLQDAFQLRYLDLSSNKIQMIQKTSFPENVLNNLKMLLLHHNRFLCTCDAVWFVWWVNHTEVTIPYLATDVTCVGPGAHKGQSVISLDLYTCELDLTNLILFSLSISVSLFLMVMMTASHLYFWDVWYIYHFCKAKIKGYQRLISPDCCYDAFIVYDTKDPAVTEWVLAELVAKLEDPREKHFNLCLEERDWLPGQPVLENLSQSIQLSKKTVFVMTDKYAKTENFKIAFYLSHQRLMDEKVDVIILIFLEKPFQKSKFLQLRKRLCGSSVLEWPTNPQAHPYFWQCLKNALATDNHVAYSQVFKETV
Text: For TLR8 and TLR7 activity testing, HEK-Blue human TLR8 or TLR7 cells (Invivogen, San Diego, Calif., USA) are used, respectively. These cells are designed for studying the stimulation of human TLR8 or TLR7 by monitoring the activation of NF-κB. A SEAP (secreted embryonic alkaline phosphatase) reporter gene is placed under the control of the IFN-b minimal promoter fused to five NF-κB and AP-1-binding sites. Therefore the reporter expression is regulated by the NF-κB promoter upon stimulation of human TLR8 or TLR7 for 20 hours. The cell culture supernatant SEAP reporter activity was determined using Quanti Blue kit (Invivogen, San Diego, Ca, USA) at a wavelength of 640 nm, a detection medium that turns purple/blue in the presence of alkaline phosphatase. EC50 values were determined using Activity Base analysis (ID Business Solution, Limited).

| Compound | CC50 at 5 days [1] | CC50 [2] | CC50 at 5 days [3] | CC50 [4] | CC50 at 5 days [5] | EC50 [6] |
| --- | --- | --- | --- | --- | --- | --- |
| CCCC[C@](C)(CNC(C)=O)Nc1nc(N)nc2cc(Cl)cnc12 [Compound 65, (R)—N-(2-((2-amino-7-chloropyrido[3,2-d]pyrimidin-4-yl)amino)-2-methylhexyl)acetamide] | 56.6 µM | 44.4 µM | ≥ 44.4 µM | 44.4 µM | 44.4 µM | – |
| CCCC[C@](C)(CNC(C)=O)Nc1nc(N)nc2cc(F)cnc12 [Compound 101, (R)—N-(2-((2-amino-7-fluoropyrido[3,2-d]pyrimidin-4-yl)amino)-2-methylhexyl)acetamide] | 56.6 µM | 44.4 µM | ≥ 44.4 µM | 44.4 µM | 44.4 µM | – |
| CCCN(CC1CC1)C(=O)C1=Cc2ccc(C3=NCc4ccccc4N3)cc2N=C(N)C1 [Example 3, 2-Amino-N-(cyclopropylmethyl)-8-(1,4-dihydroquinazolin-2-yl)-N-propyl-3H-1-benzazepine-4-carboxamide] | – | – | – | – | – | > 100 µM |
| CCCN(CC(C)C)C(=O)C1=Cc2ccc(C3=NCc4ccccc4N3)cc2N=C(N)C1 [Example 4, 2-Amino-8-(1,4-dihydroquinazolin-2-yl)-N-isobutyl-N-propyl-3H-1-benzazepine-4-carboxamide] | – | – | – | – | – | > 100 µM |
| CCCN(CCC)C(=O)C1=Cc2ccc(C3=NCc4c(Cl)cccc4N3)cc2N=C(N)C1 [Example 5, 2-Amino-8-(5-chloro-1,4-dihydroquinazolin-2-yl)-N,N-dipropyl-3H-1-benzazepine-4-carboxamide] | – | – | – | – | – | > 100 µM |
| CCCC[C@@](C)(Nc1nc(N)nc2cccnc12)C(C)O (single isomer, unassigned) [Compound 97] | 30 µM | 44.4 µM | 33 µM | 44.4 µM | 27.5 µM | – |
| CCCN(CCC)C(=O)C1=Cc2ccc(C3=NCc4ccc(Cl)cc4N3)cc2N=C(N)C1 [Example 6, 2-Amino-8-(7-chloro-1,4-dihydroquinazolin-2-yl)-N,N-dipropyl-3H-1-benzazepine-4-carboxamide] | – | – | – | – | – | > 100 µM |
| CCCN(CCC)C(=O)C1=Cc2ccc(C3=NCc4ccncc4N3)cc2N=C(N)C1 [Example 2, 2-Amino-8-(1,4-dihydropyrido[3,4-d]pyrimidin-2-yl)-N,N-dipropyl-3H-1-benzazepine-4-carboxamide] | – | – | – | – | – | > 100 µM |
| CCCN(CCC)C(=O)C1=Cc2ccc(C3=NCc4ccccc4N3)cc2N=C(N)C1 [Example 1, 2-Amino-8-(1,4-dihydroquinazolin-2-yl)-N,N-dipropyl-3H-1-benzazepine-4-carboxamide] | – | – | – | – | – | > 100 µM |

Source: patent publication US20220305115A1 (JANSSEN SCIENCES IRELAND UNLIMITED COMPANY, priority 2019, published 2022)
